# Measurements as given in patent publication US6004957A, “Sulfonamide inhibitors of aspartyl protease” (Vertex Pharmaceuticals, Incorporated, priority 1998, dated 1999).
# System: HIVIIIb in CCRM-CEM cells
# Assay: Anti-viral potency in CCRM-CEM cells acutely infected with HIVIIIb (method of Meek et al.), extracellular p24 antigen
# Assay type: cell-based, HIV-1
# Details: Human immunodeficiency virus 1, HIV replication, Table VIII, read-out: IC90 Range
# Source text: As discussed above, the novel compounds of the present invention are excellent ligands for aspartyl proteases, particularly HIV-1 and HIV-2 proteases. Accordingly, these compounds are capable of targeting and inhibiting late stage events in HIV replication, i.e., the processing of the viral polyproteins by HIV encoded proteases. […] Because aspartyl protease is essential for the production of mature virions, inhibition of that processing effectively blocks the spread of virus by inhibiting the production of infectious virions, particularly from chronically infected cells. […] Other anti-viral assays have confirmed the potency of these compounds.
# Compounds of formula I were tested for their antiviral potency in several virological assays. In the first assay, the compounds were added as a solution in dimethylsulfoxide (DMSO) to a test cell culture of CCRM-CEM cells, a strain of CD4^+ human T-cell lymphoma cells, previously acutely infected with HIVIIIb using standard protocols (see Meek, T. D. et al., "Inhibition of HIV-1 protease in infected T-lymphocytes by synthetic peptide analogues", Nature, 343, p. 90 (1990). Preferred compounds are those which are able to inhibit 90% of viral infectivity at a concentration of 1 μM or less. More preferred compounds are those which are able to inhibit 90% of viral infectivity at a concentration of 100 nM or less.
# The effect of the compounds on inhibiting the replication of the virus was measured by determining the HIV extracellular p24 antigen concentration using a commercial enzyme immunoassay (obtained from Coulter Corporation, Hialeah, Fla.).
row,Structure (SMILES),IC90
1,NC(=O)C[C@H](NC(=O)c1ccc2ccccc2n1)C(=O)N[C@@H](Cc1ccccc1)[C@H](O)CN(Cc1ccccc1)S(=O)(=O)c1ccccc1 [Compound 1],1 to 10 µM
2,Cc1noc(C)c1S(=O)(=O)N(Cc1ccccc1)C[C@@H](O)[C@H](Cc1ccccc1)NC(=O)[C@H](CC(N)=O)NC(=O)c1ccc2ccccc2n1 [Compound 3],1 to 10 µM
3,NC(=O)C[C@H](NC(=O)c1ccc2ccccc2n1)C(=O)N[C@@H](Cc1ccccc1)[C@H](O)CN(Cc1ccccc1)S(=O)(=O)c1cccc(C(F)(F)F)c1 [Compound 4],1 to 10 µM
4,CC(=O)Nc1nc(C)c(S(=O)(=O)N(Cc2ccccc2)C[C@@H](O)[C@H](Cc2ccccc2)NC(=O)[C@H](CC(N)=O)NC(=O)c2ccc3ccccc3n2)s1 [Compound 5],0.101 to 1 µM
5,"NC(=O)C[C@H](NC(=O)c1ccc2ccccc2n1)C(=O)N[C@@H](Cc1ccccc1)[C@H](O)CN(Cc1ccccc1)S(=O)(=O)c1ccc(-c2ccon2)s1 [Compound 6, (S)-N-1-(1-Benzyl-3-(benzyl-(5-isoxazol-3-yl-thiophene-2-sulfonyl)-amino)-(1S,2 syn)-1-benzyl-2-hydroxy-propyl)-2-((quinoline-2-carbonyl)-amino)-succinamide]",0.101 to 1 µM
6,NC(=O)C[C@H](NC(=O)c1ccc2ccccc2n1)C(=O)N[C@@H](Cc1ccccc1)[C@H](O)CN(Cc1ccccc1)S(=O)(=O)c1cccc(C(=O)O)c1 [Compound 7],10 to 40 µM
7,"NC(=O)C[C@H](NC(=O)c1ccc2ccccc2n1)C(=O)N[C@@H](Cc1ccccc1)[C@H](O)CN(Cc1ccccc1)S(=O)(=O)c1cccc2nonc12 [Compound 9, (S)-N-1-(3-((Benzo(1,2,5)oxadiazole-4-sulfonyl)-benzyl-amino)-(1S,2 syn)-1-benzyl-2-hydroxy-propyl)-2-((quinoline-2-carbonyl)-amino)-succinamide]",0.101 to 1 µM
8,"NC(=O)C[C@H](NC(=O)c1ccc2ccccc2n1)C(=O)N[C@@H](Cc1ccccc1)[C@H](O)CN(Cc1ccccc1)S(=O)(=O)c1cccc(S(N)(=O)=O)c1 [Compound 10, N-1-(1-(S)-Benzyl-3-(benzyl-(3-sulfamoyl-benzenesulfonyl)-amino)-2-(syn)-hydroxy-propyl)-2-((quinoline-2-carbonyl)-amino)-succinamide]",0.101 to 1 µM
9,"CC(C)CN(C[C@@H](O)[C@H](Cc1ccccc1)NC(=O)[C@H](CC(N)=O)NC(=O)c1ccc2ccccc2n1)S(=O)(=O)c1cc(S(=O)(=O)c2ccccc2)cs1 [Compound 13, (S)-N-1-(3-((4-Benzenesulfonyl-thiophene-2-sulfonyl)-isobutyl-amino)-(1S,2 syn)-1-benzyl-2-hydroxy-propyl)-2-((quinoline-2-carbonyl)-amino)-succinamide]",< 0.1 µM
10,"CC(C)CN(C[C@@H](O)[C@H](Cc1ccccc1)NC(=O)[C@H](CC(N)=O)NC(=O)c1ccc2ccccc2n1)S(=O)(=O)c1ccc(F)cc1 [Compound 14, (S)-N-1-(1-(S)-Benzyl-3-((4-fluoro-benzenesulfonyl)-isobutyl-amino)-2-(syn)-hydroxy-propyl)-2-((quinoline-2-carbonyl)-amino)-succinamide]",< 0.1 µM
11,"CC(=O)Nc1ccc(S(=O)(=O)N(CC(C)C)C[C@@H](O)[C@H](Cc2ccccc2)NC(=O)[C@H](CC(N)=O)NC(=O)c2ccc3ccccc3n2)cc1F [Compound 15, (S)-N-1-(3-((4-Acetylamino-3-fluoro-benzenesulfonyl)-isobutyl-amino)-(1S,2 syn)-1-benzyl-2-hydroxy-propyl)-2-((quinoline-2-carbonyl)-amino)-succinamide]",< 0.1 µM
12,"CC(=O)Nc1cc(S(=O)(=O)N(CC(C)C)C[C@@H](O)[C@H](Cc2ccccc2)NC(=O)[C@H](CC(N)=O)NC(=O)c2ccc3ccccc3n2)ccc1F [Compound 16, (S)-N-1-(3-((3-Acetylamino-4-fluoro-benzenesulfonyl)-isobutyl-amino)-(1S,2 syn)-1-benzyl-2-hydroxy-propyl)-2-((quinoline-2-carbonyl)-amino)-succinamide]",0.101 to 1 µM
